Assay type in all cases: cell-based
One assay relates to HCT116-G31D. Kind of assay: Viability assay (CellTiterBlue, 72 hr) HCT116. The following applies: Homo sapiens, HCT-116, GI50, CellTiterBlue, HCT116 K-Ras G13D, read-out: 72 hr Cell Viability HCT116 (G13D). In a few lines:
(§1)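 Each line was plated at 1000 cells per well and incubated for 72 hr with compound after an 18 hr settling period. CellTiterBlue fluorescence measured the result, and GI50 was fitted relative to DMSO and tamoxifen controls.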

The test system of assay [1] is phospho-Akt in Panc1 (G12D). Kind of assay: In-Cell Western phospho-Akt, Panc1. The following applies: Homo sapiens, PANC-1, 1 h; Panc1, one hour treatment; read-out: In-Cell Western Panc1 (G12D) Akt (P). The gist of the method: (§2)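 Cells were seeded at 3000 cells/well, incubated 18 hr at 37° C, then treated with compound for 1 hr (0.5% DMSO final). After fixation, permeabilization and blocking, phospho-Akt or phospho-ERK antibodies were applied overnight at 4° C, followed by secondary antibody; cellular fluorescence was imaged and EC50 calculated.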

The subject of assay [2] is Ishikawa (K-Ras wild type cell line). The assay is described as follows: Viability assay (CellTiterBlue, 72 hr) Ishikawa. The following applies: Homo sapiens, GI50, CellTiterBlue, Ishikawa K-Ras wild-type. The gist of the method:
as §1

Assay [3] concerns phospho-Akt in Panc10.05 (G12D). The assay is described as follows: In-Cell Western phospho-Akt, Panc10.05. The following applies: Homo sapiens, Panc1005, 1 h; Panc10.05, one hour treatment; read-out: In-Cell Western Panc10.05 (G12D) Akt (P). The gist of the method:
as §2

The subject of assay [4] is phospho-ERK in A375 (Wild-type). Kind of assay: In-Cell Western phospho-ERK, A375. The following applies: Homo sapiens, A-375, 1 h; A375, one hour treatment; read-out: In-Cell Western A375 (Wild-type) Erk (P). The method, then:
(§3) In-cell phosphorylation assays for Erk and Akt were performed on several of the compounds and exemplary results are shown in Table 3 below using HCC827 and A375 cell lines for wild type K-Ras and Panc1 and Panc10.05 cell lines for G12D K-Ras mutants. Results are expressed in μM and corresponding structures are shown in FIGS. 2A-2G and Examples 1-152, above.
(§4) Cells are seeded in complete medium into black sided, clear-bottom 384-well microplates at 3000 cells/[…]/well. Plates are returned to 37° C. CO2 incubator for 18 hr. Drug is made as 200× in DMSO and diluted into medium to 10×. To each well is added 4 ul 10× test article or controls, and plates are returned to the incubator. Final assay DMSO concentration is 0.5%. After one hour, cells are fixed in formaldehyde, rinsed & permeabilized with triton X-100, and blocked with BSA/Goat serum blocking solution. Primary phospho-Akt and phospho-ERK antibodies are added and plates are incubated overnight at 4° C. Plates are rinsed with Tween-20 wash buffer and secondary antibody (Goat anti-rabbit, Thermofisher) is added. After 2 hours, plates are rinsed in Tween-20 wash buffer, and then PBS. Plates are imaged on the Celigo (Nexcelom) and cellular fluorescence is quantitated. Full inhibition of phospho-Akt is achieved with 1 uM BEZ235 (Sellekchem), while full inhibition of phospho-ERK is achieved with 1 uM MEK Inhibitor II Calbiochem). EC50 values are calculated using Graphpad Prism.

The subject of assay [5] is phospho-Akt in A375 (Wild-type). Kind of assay: In-Cell Western phospho-Akt, A375. The following applies: Homo sapiens, A-375, 1 h; A375, one hour treatment; read-out: In-Cell Western A375 (Wild-type) Akt (P). The method, then: as §3, §4
In assay [6] the test system is phospho-ERK in Panc1 (G12D). The assay is described as follows: In-Cell Western phospho-ERK, Panc1. The following applies: Homo sapiens, PANC-1, 1 h; Panc1, one hour treatment; read-out: In-Cell Western Panc1 (G12D) Erk (P). The gist of the method: as §2
The test system of assay [7] is phospho-ERK in Panc10.05 (G12D). The assay is described as follows: In-Cell Western phospho-ERK, Panc10.05. The following applies: Homo sapiens, Panc1005, 1 h; Panc10.05, one hour treatment; read-out: In-Cell Western Panc10.05 (G12D) Erk (P). In a few lines: as §2
In assay [8] the test system is A375 (K-Ras wild type cell line). Kind of assay: Viability assay (CellTiterBlue, 72 hr) A375. The following applies: Homo sapiens, A-375, GI50, CellTiterBlue. The procedure:
Viability assays were performed on exemplary compounds and Table 2 below lists exemplary results for selected compounds tested on K-Ras wild type cell lines (Ishikawa, U87-MG, HCC827, and A375) and various K-Ras mutant cell lines (Panc1-G12D; Panc10.05-G12D; HCT116-G31D). Results are expressed in μM and corresponding structures are shown in FIGS. 2A-2G and Examples 1-152, above.
Cells are counted and seeded at 1000 cells/36 ul medium/well into 384-well microplates. Cells are returned to 37° C. CO2 incubator for 18 hr. Drug is made as 200× in DMSO and diluted into medium to 10×. To each well is added 4 ul 10× drug, and plates are returned to the incubator. Final assay DMSO concentration is 0.5%. After 72 hr, 8 ul CellTiterBlue (Promega) is added to each well. After 3 hr, fluorescence (Ex550/Em590) is determined on the Victor Plate Reader (Perkin Elmer). Assay range is determined by DMSO control (100% viability) and 100 uM tamoxifen (0% viability). GI50 values are calculated using Graphpad Prism.
On the technique in general: Alamar Blue is a resazurin reagent that responds to reducing activity.

Assay [9] relates to U87-MG (K-Ras wild type cell line). Kind of assay: Viability assay (CellTiterBlue, 72 hr) U87-MG. The following applies: Homo sapiens, U-87 MG, GI50, CellTiterBlue, U87-MG K-Ras wild-type. The gist of the method:
as §1

The next assay concerns the target T1, K-Ras G12D (Homo sapiens, UniProt P01116, G12D).
T1 construct: expressed in transfected cells; host or cells: 293H cells
Kind of assay: G-LISA Ras activation, 293H cells transfected with G12D mutant. The following applies: compound 1 hour. In a few lines: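 293H cells were transfected with wild-type or mutant Ras plasmid (Lipofectamine 3000), then exposed next day to compounds at 3.125-25 μM for 1 hour. Wild-type transfectants received 100 ng/ml EGF for 2 minutes before ice-cold PBS wash, lysis on ice and G-LISA readout of active Ras.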

For assay [10], the system named is phospho-ERK in HCC827 (Wild-type). The assay is described as follows: In-Cell Western phospho-ERK, HCC827. The following applies: Homo sapiens, 1 h; HCC827, one hour treatment; read-out: In-Cell Western HCC827 (Wild-type) Erk (P). The method, then:
as §3, §4

For assay [11], the system named is HCC827 (K-Ras wild type cell line). The assay is described as follows: Viability assay (CellTiterBlue, 72 hr) HCC827. The following applies: Homo sapiens, GI50, CellTiterBlue, HCC827 K-Ras wild-type. In a few lines: as §1
For the next assay, the system named is Panc1-G12D. Kind of assay: Viability assay (CellTiterBlue, 72 hr) Panc1. The following applies: Homo sapiens, PANC-1, GI50, CellTiterBlue, Panc1 K-Ras G12D, read-out: 72 hr Cell Viability Panc1 (G12D). The gist of the method:
as §1

For another assay, the system named is Panc10.05-G12D. The assay is described as follows: Viability assay (CellTiterBlue, 72 hr) Panc10.05. The following applies: Homo sapiens, Panc1005, GI50, CellTiterBlue, Panc10.05 K-Ras G12D, read-out: 72 hr Cell Viability Panc10.05 (G12D). In a few lines: as §1

T1 sequence (P01116 whole entry G12D): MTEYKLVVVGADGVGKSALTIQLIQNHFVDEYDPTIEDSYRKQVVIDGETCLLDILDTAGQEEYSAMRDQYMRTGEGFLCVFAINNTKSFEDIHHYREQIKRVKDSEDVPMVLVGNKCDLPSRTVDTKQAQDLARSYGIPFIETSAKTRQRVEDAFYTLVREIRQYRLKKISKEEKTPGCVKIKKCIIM

In the case of `Cn1nc(C(F)F)cc1C(=O)Nc1nc(-c2ccc3c(c2)CCC(=O)N3)cs1` [Compound 49, 3-(difluoromethyl)-1-methyl-N-(4-(2-oxo-1,2,3,4-tetrahydroquinolin-6-yl)thiazol-2-yl)-1H-pyrazole-5-carboxamide], the IC50 is more than 25 µM in the assay with HCT116-G31D; more than 25 µM in assay [2]; more than 25 µM in assay [8]; more than 25 µM in [9]; 12.3 µM against K-Ras G12D; more than 25 µM in assay [11]. Moreover, the IC50 in the assay on Panc1-G12D and with Panc10.05-G12D was more than 25 µM each time. The EC50 is more than 25 µM in assay [1]; 20 µM in assay [3]; more than 25 µM in assay [4]; more than 25 µM in [5]; more than 25 µM in assay [6]; 19 µM in assay [7]. Further, in assay [10], the EC50 was more than 25 µM.

As to `CCn1nc(C2CC2)cc1C(=O)Nc1nc(-c2ccc3c(c2)CCC(=O)N3)cs1` [Compound 45, 3-cyclopropyl-1-ethyl-N-(4-(2-oxo-1,2,3,4-tetrahydroquinolin-6-yl)thiazol-2-yl)-1H-pyrazole-5-carboxamide], the IC50 in the assay on HCT116-G31D is more than 25 µM; in [2] it was more than 25 µM; in assay [8], more than 25 µM; in assay [9], more than 25 µM; against K-Ras G12D, 8.8 µM; in assay [11], more than 25 µM. Besides, the IC50 in the assay with Panc1-G12D is more than 25 µM; in the assay on Panc10.05-G12D, 3 µM. Further, the EC50 was more than 25 µM in assay [1]; 11 µM in assay [3]; more than 25 µM in assay [4]; more than 25 µM in [5]; more than 25 µM in assay [6]; 6 µM in assay [7]. In [10], the EC50 is more than 25 µM.

For the molecule `Cc1nc(C2CCCCC2)oc1C(=O)Nc1nc(-c2ccc3c(c2)CCC(=O)N3Cc2cccnc2)cs1` [Compound 101, 2-cyclohexyl-4-methyl-N-(4-(2-oxo-1-(pyridin-3-ylmethyl)-1,2,3,4-tetrahydroquinolin-6-yl)thiazole-2-yl)oxazole-5-carboxamide], the IC50 is 14 µM with HCT116-G31D; 2 µM in assay [2]; 4 µM in assay [8]; more than 25 µM in assay [9]; 9.3 µM against K-Ras G12D; more than 25 µM in [11]. In addition, the IC50 in the assay on Panc1-G12D stood at 2 µM; with Panc10.05-G12D it was 4 µM. Further, the EC50 in [1] is more than 25 µM; in [3], more than 25 µM; in assay [4] it was more than 25 µM; in assay [5] it was more than 25 µM; in [6], 18 µM; in [7], 3 µM. Further, in assay [10], the EC50 stood at 14 µM.

As for `Cn1nc(C(F)(F)F)cc1C(=O)Nc1nc(-c2ccc3c(c2)CCC(=O)N3)cs1` [Compound 50, 1-methyl-N-(4-(2-oxo-1,2,3,4-tetrahydroquinolin-6-yl)thiazol-2-yl)-3-(trifluoromethyl)-1H-pyrazole-5-carboxamide], the IC50 (with HCT116-G31D; in [2]; in assay [8]; in [9]; in assay [11]; in the assay with Panc1-G12D) was more than 25 µM throughout. In addition, in the assay with Panc10.05-G12D, the IC50 was more than 25 µM. The EC50 in assay [1], in assay [3], in assay [4], in assay [5], in assay [6] and in assay [7] was more than 25 µM throughout. In addition, the EC50 in assay [10] was 13 µM.

On to `CCc1nc(C)c(C(=O)Nc2nc(-c3ccc4c(c3)CCC(=O)N4Cc3cncnc3)cs2)o1` [Compound 104, 2-ethyl-4-methyl-N-(4-(2-oxo-1-(pyrimidin-5-ylmethyl)-1,2,3,4-tetrahydroquinolin-6-yl)thiazol-2-yl)oxazole-5-carboxamide], for which the IC50 is 5 µM in the assay on HCT116-G31D; more than 25 µM in assay [2]; 6 µM in [8]; more than 25 µM in assay [9]; more than 25 µM in [11]; 22 µM in the assay on Panc1-G12D. Moreover, the IC50 in the assay with Panc10.05-G12D was 17 µM. Moreover, the EC50 in assay [1], in assay [3], in assay [4], in assay [5], in [6] and in assay [7] was more than 25 µM in each case. Also, in assay [10], the EC50 was more than 25 µM.

With `Cc1nc(C(=O)Nc2nc(-c3ccc4c(c3)CCC(=O)N4)cs2)c(C)s1` [Compound 20, 2,5-dimethyl-N-(4-(2-oxo-1,2,3,4-tetrahydroquinolin-6-yl)thiazol-2-yl)thiazole-4-carboxamide], the IC50 (in the assay on HCT116-G31D; in assay [2]; in assay [8]; in assay [9]; in assay [11]; in the assay with Panc1-G12D) was more than 25 µM each time. The IC50 with Panc10.05-G12D is more than 25 µM. Further, the EC50 in assay [1], in assay [3], in assay [4], in assay [5], in assay [6] and in assay [7] was more than 25 µM throughout. Besides, the EC50 in [10] was more than 25 µM.

Source of the values: US10344026B2, “Compositions and methods of targeting mutant K-ras” (NANTBIO, INC., priority 2017, dated 2019).
